Results as given in PMC9821906, “Synthesis of New Triazole-Based Thiosemicarbazone Derivatives as Anti-Alzheimer’s Disease Candidates: Evidence-Based In Vitro Study” (Molecules, 2022).

What was measured:
[1] = target: acetylcholinesterase (AChE) (Homo sapiens, UniProt P22303); format: biochemical
Procedure: (§1) Based on previously described methods, in vitro study of AChE inhibitory profile was calculated. In order to make a stock solution, compounds being analyzed were dissolved in DMSO (1 mg/mL). In addition, the working solutions were also prepared by using serial dilution (1–100 μg/mL). The solution of AChE enzyme (20 μL; 0.1 U/mL), analogues being tested with different concentration and buffer of sodium phosphate (150 μL; pH 8.0; 0.1 M) were preincubated appropriately at 25 °C. The process was initiated as DTNB (10 mM; 10 μL) and […] (14 mM; 10 μL) were accumulated. The resulting residue was mixed (by using cyclomixer) and put on incubation for 10 min at 25 °C. Instead of compounds being tested using 10 μL DMSO, the absorbance against blank reading was calculated with a microplate reader at 410 nm.
(§2) By plotting a nonlinear graph between inhibition and concentration, IC50 was calculated using GraphPad Prism 5.3.

[2] = target: butyrylcholinesterase (BuChE) (Homo sapiens, UniProt P06276); format: biochemical
butyrylcholinesterase (BuChE), sequence (P06276 29-602): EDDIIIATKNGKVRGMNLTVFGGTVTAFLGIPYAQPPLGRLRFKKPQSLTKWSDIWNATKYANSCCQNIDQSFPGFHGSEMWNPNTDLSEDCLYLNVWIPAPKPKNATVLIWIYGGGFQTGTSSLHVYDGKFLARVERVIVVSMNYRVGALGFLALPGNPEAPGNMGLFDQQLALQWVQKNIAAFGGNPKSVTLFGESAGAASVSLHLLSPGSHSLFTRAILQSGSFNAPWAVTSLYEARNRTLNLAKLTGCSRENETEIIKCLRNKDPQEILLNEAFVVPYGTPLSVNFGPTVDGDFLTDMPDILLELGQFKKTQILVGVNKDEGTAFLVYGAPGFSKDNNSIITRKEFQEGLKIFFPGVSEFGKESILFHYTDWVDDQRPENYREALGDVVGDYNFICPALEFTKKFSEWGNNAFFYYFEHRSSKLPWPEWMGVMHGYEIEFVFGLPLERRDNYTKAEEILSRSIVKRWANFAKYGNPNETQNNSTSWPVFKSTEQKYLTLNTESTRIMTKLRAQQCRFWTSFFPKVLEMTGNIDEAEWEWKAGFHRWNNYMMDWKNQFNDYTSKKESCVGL
Procedure: as §1, §2
In order to explore the inhibition profile of in vitro BuChE enzyme, a similar procedure was adopted. For measurement of BuChE activity, the solution containing BuChE enzyme was used.

acetylcholinesterase (AChE), sequence (P22303 32-614, species assumed): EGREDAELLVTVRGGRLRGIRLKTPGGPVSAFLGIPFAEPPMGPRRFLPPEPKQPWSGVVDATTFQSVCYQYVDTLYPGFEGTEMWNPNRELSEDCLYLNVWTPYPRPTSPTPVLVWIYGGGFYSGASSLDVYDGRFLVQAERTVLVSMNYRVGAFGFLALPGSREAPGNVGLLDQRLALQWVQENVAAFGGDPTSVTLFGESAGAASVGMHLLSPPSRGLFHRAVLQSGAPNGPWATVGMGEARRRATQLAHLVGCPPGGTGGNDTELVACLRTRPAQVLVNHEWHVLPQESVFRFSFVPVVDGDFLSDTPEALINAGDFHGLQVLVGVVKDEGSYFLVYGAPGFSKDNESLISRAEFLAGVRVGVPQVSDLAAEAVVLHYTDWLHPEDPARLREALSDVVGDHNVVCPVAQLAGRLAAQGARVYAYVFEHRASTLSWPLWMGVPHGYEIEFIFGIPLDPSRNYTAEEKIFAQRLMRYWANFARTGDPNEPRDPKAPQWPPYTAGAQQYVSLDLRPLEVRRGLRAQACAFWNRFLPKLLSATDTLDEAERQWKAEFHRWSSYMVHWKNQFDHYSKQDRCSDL

With `O=[N+]([O-])c1ccc(-c2nnc(SC/C(=N/NC(=S)Nc3cc(Cl)c(Cl)cc3[N+](=O)[O-])c3ccccc3Br)[nH]2)cc1` [6a, (.E)-2-(1-(2-bromophenyl)-2-((5-(4-nitrophenyl)-4H-1,2,4-triazol-3-yl)thio)ethylidene)-N-(4,5-dichloro-2-nitrophenyl)hydrazine-1-carbothioamide] the IC50 [1] was 2.2 ± 0.1 µM, the “Selectivity Index” value [1] was 1.77 and the IC50 [2] was 3.9 ± 0.1 µM.
`O=[N+]([O-])c1ccc(-c2nnc(SC/C(=N/NC(=S)Nc3ccccc3)c3ccc(-c4ccccc4)cc3)[nH]2)cc1` [6c, (.E)-2-(1-([1,1′-biphenyl]-4-yl)-2-((5-(4-nitrophenyl)-4H-1,2,4-triazol-3-yl)thio)ethylidene)-N-phenylhydrazine-1-carbothioamide] was tested, and the “AChE IC50” value [1] was “completely inactive” and the “BuChE IC50” value [2] was “completely inactive”.
With `Cc1ccc(-c2ccc(NC(=S)N/N=C(/CSc3nnc(-c4ccc([N+](=O)[O-])cc4)[nH]3)c3ccc(-c4ccccc4)cc3)cc2)cc1` [6d, (.E)-2-(1-([1,1′-biphenyl]-4-yl)-2-((5-(4-nitrophenyl)-4H-1,2,4-triazol-3-yl)thio)ethylidene)-N-(4′-methyl-[1,1′-biphenyl]-4-yl)hydrazine-1-carbothioamide] the “AChE IC50” value [1] was “completely inactive” and the “BuChE IC50” value [2] was “completely inactive”.
For `O=[N+]([O-])c1ccc(-c2nnc(SC/C(=N/NC(=S)Nc3cccc([N+](=O)[O-])c3)c3ccc(-c4ccccc4)cc3)[nH]2)cc1` [6e, (.E)-2-(1-([1,1′-biphenyl]-4-yl)-2-((5-(4-nitrophenyl)-4H-1,2,4-triazol-3-yl)thio)ethylidene)-N-(3-nitrophenyl)hydrazine-1-carbothioamide], the IC50 [1] was 4.7 ± 0.1 µM, the “Selectivity Index” value [1] was 1.34 and the IC50 [2] was 6.3 ± 0.1 µM.
For `COc1ccc(OC)c(/C(CSc2nnc(-c3ccc([N+](=O)[O-])cc3)[nH]2)=N\NC(=S)Nc2ccc(C)cc2[N+](=O)[O-])c1` [6f, (.E)-2-(1-(2,5-dimethoxyphenyl)-2-((5-(4-nitrophenyl)-4H-1,2,4-triazol-3-yl)thio)ethylidene)-N-(4-methyl-2-nitrophenyl)hydrazine-1-carbothioamide], the IC50 [1] was 2.4 ± 0.1 µM, the “Selectivity Index” value [1] was 1.96 and the IC50 [2] was 4.7 ± 0.1 µM.
`COc1ccc(OC)c(/C(CSc2nnc(-c3ccc([N+](=O)[O-])cc3)[nH]2)=N\NC(=S)Nc2ccc([N+](=O)[O-])cc2)c1` [6g, (.E)-2-(1-(2,5-dimethoxyphenyl)-2-((5-(4-nitrophenyl)-4H-1,2,4-triazol-3-yl)thio)ethylidene)-N-(4-nitrophenyl)hydrazine-1-carbothioamide] was tested, and the IC50 [1] was 2.1 ± 0.1 µM, the “Selectivity Index” value [1] was 2.04 and the IC50 [2] was 4.3 ± 0.1 µM.
In the case of `Cc1ccc(NC(=S)N/N=C(/CSc2nnc(-c3ccc([N+](=O)[O-])cc3)[nH]2)c2ccc(Br)cc2)c([N+](=O)[O-])c1` [6h, (.E)-2-(1-(4-bromophenyl)-2-((5-(4-nitrophenyl)-4H-1,2,4-triazol-3-yl)thio)ethylidene)-N-(4-methyl-2-nitrophenyl)hydrazine-1-carbothioamide], the IC50 [1] is reported as 9.1 ± 0.2 µM, the “Selectivity Index” value [1] is reported as 1.23 and the IC50 [2] is reported as 11.2 ± 0.3 µM.
With `CN(C)c1cc(Cl)c(NC(=S)N/N=C(/CSc2nnc(-c3ccc([N+](=O)[O-])cc3)[nH]2)c2ccc(-c3ccccc3)cc2)cc1Cl` [6j, (.E)-2-(1-([1,1′-biphenyl]-4-yl)-2-((5-(4-nitrophenyl)-4H-1,2,4-triazol-3-yl)thio)ethylidene)-N-(2,5-dichloro-4-(dimethylamino)phenyl)hydrazine-1-carbothioamide] the IC50 [1] was 11.3 ± 0.3 µM, the “Selectivity Index” value [1] was 1.09 and the IC50 [2] was 12.3 ± 0.3 µM.
For `Cc1ccc(-c2ccc(NC(=S)N/N=C(/CSc3nnc(-c4ccc([N+](=O)[O-])cc4)[nH]3)c3ccc(Br)cc3)cc2)cc1` [6k, (.E)-2-(1-(4-bromophenyl)-2-((5-(4-nitrophenyl)-4H-1,2,4-triazol-3-yl)thio)ethylidene)-N-(4′-methyl-[1,1′-biphenyl]-4-yl)hydrazine-1-carbothioamide], the IC50 [1] was 12.2 ± 0.3 µM, the “Selectivity Index” value [1] was 1.15 and the IC50 [2] was 14.1 ± 0.4 µM.
`Cc1ccc(/C(CSc2nnc(-c3ccc([N+](=O)[O-])cc3)[nH]2)=N\NC(=S)Nc2cc(Cl)c(Cl)cc2[N+](=O)[O-])c([N+](=O)[O-])c1` [6l, (.E)-N-(4,5-dichloro-2-nitrophenyl)-2-(1-(4-methyl-2-nitrophenyl)-2-((5-(4-nitrophenyl)-4H-1,2,4-triazol-3-yl)thio)ethylidene)hydrazine-1-carbothioamide] was tested, and the IC50 [1] was 4.6 ± 0.01 µM, the “Selectivity Index” value [1] was 1.28 and the IC50 [2] was 5.9 ± 0.1 µM.
`Cc1ccc(NC(=S)N/N=C(/CSc2nnc(-c3ccc([N+](=O)[O-])cc3)[nH]2)c2ccc(Cl)c(Cl)c2)c([N+](=O)[O-])c1` [6m, (.E)-2-(1-(3,4-dichlorophenyl)-2-((5-(4-nitrophenyl)-4H-1,2,4-triazol-3-yl)thio)ethylidene)-N-(4-methyl-2-nitrophenyl)hydrazine-1-carbothioamide] was tested, and the IC50 [1] was 2.7 ± 0.1 µM, the “Selectivity Index” value [1] was 1.41 and the IC50 [2] was 3.8 ± 0.1 µM.
In the case of `O=[N+]([O-])c1ccc(NC(=S)N/N=C(/CSc2nnc(-c3ccc([N+](=O)[O-])cc3)[nH]2)c2ccc(Cl)c(Cl)c2)cc1` [6n, (.E)-2-(1-(3,4-dichlorophenyl)-2-((5-(4-nitrophenyl)-4H-1,2,4-triazol-3-yl)thio)ethylidene)-N-(4-nitrophenyl)hydrazine-1-carbothioamide], the IC50 [1] is reported as 0.7 ± 0.05 µM, the “Selectivity Index” value [1] is reported as 2.43 and the IC50 [2] is reported as 1.7 ± 0.05 µM.
With `O=[N+]([O-])c1ccc(-c2nnc(SC/C(=N/NC(=S)Nc3ccccc3)c3ccc(Cl)c(Cl)c3)[nH]2)cc1` [6o, (.E)-2-(1-(3,4-dichlorophenyl)-2-((5-(4-nitrophenyl)-4H-1,2,4-triazol-3-yl)thio)ethylidene)-N-phenylhydrazine-1-carbothioamide] the IC50 [1] was 2.5 ± 0.3 µM, the “Selectivity Index” value [1] was 1.24 and the IC50 [2] was 3.1 ± 0.4 µM.
In the case of `Cc1ccc(-c2ccc(NC(=S)N/N=C(/CSc3nnc(-c4ccc([N+](=O)[O-])cc4)[nH]3)c3ccc(Cl)c(Cl)c3)cc2)cc1` [6p, (.E)-2-(1-(3,4-dichlorophenyl)-2-((5-(4-nitrophenyl)-4H-1,2,4-triazol-3-yl)thio)ethylidene)-N-(4′-methyl-[1,1′-biphenyl]-4-yl)hydrazine-1-carbothioamide], the IC50 [1] is reported as 3.2 ± 0.1 µM, the “Selectivity Index” value [1] is reported as 1.44 and the IC50 [2] is reported as 4.6 ± 0.1 µM.
For `Cc1ccc(NC(=S)N/N=C(/CSc2nnc(-c3ccc([N+](=O)[O-])cc3)[nH]2)c2ccccc2[N+](=O)[O-])c([N+](=O)[O-])c1` [6r, (.E)-N-(4-methyl-2-nitrophenyl)-2-(1-(2-nitrophenyl)-2-((5-(4-nitrophenyl)-4H-1,2,4-triazol-3-yl)thio)ethylidene)hydrazine-1-carbothioamide], the IC50 [1] was 1.3 ± 0.05 µM, the “Selectivity Index” value [1] was 1.69 and the IC50 [2] was 2.2 ± 0.1 µM.
With `O=[N+]([O-])c1ccc(NC(=S)N/N=C(/CSc2nnc(-c3ccc([N+](=O)[O-])cc3)[nH]2)c2ccccc2[N+](=O)[O-])cc1` [6s, (.E)-N-(4-nitrophenyl)-2-(1-(2-nitrophenyl)-2-((5-(4-nitrophenyl)-4H-1,2,4-triazol-3-yl)thio)ethylidene)hydrazine-1-carbothioamide] the IC50 [1] was 1.4 ± 0.05 µM, the “Selectivity Index” value [1] was 1.64 and the IC50 [2] was 2.3 ± 0.1 µM.
`COc1cccc(/C(CSc2nnc(-c3ccc([N+](=O)[O-])cc3)[nH]2)=N\NC(=S)Nc2ccc(C)cc2[N+](=O)[O-])c1` [6t, (.E)-2-(1-(3-methoxyphenyl)-2-((5-(4-nitrophenyl)-4H-1,2,4-triazol-3-yl)thio)ethylidene)-N-(4-methyl-2-nitrophenyl)hydrazine-1-carbothioamide] was tested, and the IC50 [1] was 1.9 ± 0.1 µM, the “Selectivity Index” value [1] was 1.32 and the IC50 [2] was 2.5 ± 0.1 µM.
`COc1cccc(/C(CSc2nnc(-c3ccc([N+](=O)[O-])cc3)[nH]2)=N\NC(=S)Nc2ccc([N+](=O)[O-])cc2)c1` [6u, (.E)-2-(1-(3-methoxyphenyl)-2-((5-(4-nitrophenyl)-4H-1,2,4-triazol-3-yl)thio)ethylidene)-N-(4-nitrophenyl)hydrazine-1-carbothioamide] was tested, and the IC50 [1] was 2.9 ± 0.1 µM, the “Selectivity Index” value [1] was 1.28 and the IC50 [2] was 3.7 ± 0.1 µM.
